# Literature values in PubChem BioAssay AID1259409 (Chemical Carcinogenesis Research Information System (CCRIS), 2018).
# System: rodent chemically induced tumor inhibition, incidence and multiplicity
# Assay: CCRIS tumor inhibitor studies
smiles,measurement,setting,value
C=C(C)[C@@H]1CC[C@]2(C(=O)O)CC[C@]3(C)[C@H](CC[C@@H]4[C@@]5(C)CC[C@H](O)C(C)(C)[C@@H]5CC[C@]43C)[C@@H]12,"tumour outcome (control, treated, inhibition, significance)","Carcinogen: 7,12-DIMETHYLBENZ[A]ANTHRACENE, 57-97-6, Dose [Inhibitor]: 0, 5 UMOL 2/WK BEGINNING 1 WK POST CARCINOGEN TREATMENT AND CONTINUING FOR 18 WK (STUDY DURATION: 19 WK), Route [Inhibitor]: DERMAL, Species: MOUSE, Strain/Sex: ICR/FEMALE, Target Tissue: Type of Lesion: SKIN: PAPILLOMA, Dose [Carcinogen]: 50 UG ONCE, Promoter: 12-O-TETRADECANOYLPHORBOL-13-ACETATE, 16561-29-8","100%, 65%, 35%, not calculated"
CCCCCCCCCCCCCCCC(=O)OC[C@@]1(O)C[C@@]23CC[C@@H]4c5ccoc5CC[C@@]4(C)[C@@H]2CC[C@@H]1C3,"tumour outcome (control, treated, inhibition, significance)","Carcinogen: 7,12-DIMETHYLBENZ[A]ANTHRACENE, 57-97-6, Dose [Inhibitor]: 0, 60 MG 1/D FOR 3 D BEGINNING 3 D PRIOR TO CARCINOGEN DOSE (STUDY DURATION: 20 WK), Route [Inhibitor]: GAVAGE, Species: RAT, Strain/Sex: SPRAGUE-DAWLEY/FEMALE, Target Tissue: Type of Lesion: MAMMARY GLAND: TUMOR, Dose [Carcinogen]: 12 MG IN 1 ML OLIVE OIL ONCE, Promoter: NONE USED","84%, 69%, 18%, not significant"
O=[Se](=O)(O)O,"tumour outcome (control, treated, inhibition, significance)","Carcinogen: 7,12-DIMETHYLBENZ[A]ANTHRACENE, 57-97-6, Dose [Inhibitor]: 0, 0.2 PPM IN DIET BEGINNING 3 D PRIOR TO CARCINOGEN DOSE AND CONTINUING FOR 8 MO (STUDY DURATION: 8 MO), Route [Inhibitor]: ORAL, Species: MOUSE, Strain/Sex: BALB/FEMALE, Target Tissue: Type of Lesion: MAMMARY GLAND: ADENOCARCINOMA, Dose [Carcinogen]: 1 MG/WK FOR 6 WK, Promoter: NONE USED","12/31 (39%), 7/24 (29%), 26%, not calculated"
same,"tumour outcome (control, treated, inhibition, significance)","Carcinogen: 7,12-DIMETHYLBENZ[A]ANTHRACENE, 57-97-6, Dose [Inhibitor]: 0, 2 PPM IN DIET BEGINNING 3 D PRIOR TO CARCINOGEN DOSE AND CONTINUING FOR 8 MO (STUDY DURATION: 8 MO), Route [Inhibitor]: ORAL, Species: MOUSE, Strain/Sex: BALB/FEMALE, Target Tissue: Type of Lesion: MAMMARY GLAND: ADENOCARCINOMA, Dose [Carcinogen]: 1 MG/WK FOR 6 WK, Promoter: NONE USED","12/31 (39%), 2/23 (9%), 77%, p<0.08"
O=C(c1ccc(O)cc1O)C(c1coc2cc(O)ccc2c1=O)C(c1ccc(O)cc1)c1ccc(O)cc1 (stereo not drawn),"tumour outcome (control, treated, inhibition, significance)","Carcinogen: 7,12-DIMETHYLBENZ[A]ANTHRACENE, 57-97-6, Dose [Inhibitor]: 0, 16 NMOL 2/WK 1 HR PRIOR TO EACH PROMOTER DOSE FOR 20 WK (STUDY DURATION: 20 WK), Route [Inhibitor]: DERMAL, Species: MOUSE, Strain/Sex: ICR/FEMALE, Target Tissue: Type of Lesion: SKIN: TUMOR, Dose [Carcinogen]: 0.19 UMOL ONCE, Promoter: 12-0-TETRADECANOYLPHORBOL-13-ACETATE, 16561-29-8","70%, 60%, 14%, not calculated"
O=c1cc(-c2ccc(O)cc2)oc2cc(O)cc(O)c12,"tumour outcome (control, treated, inhibition, significance)","Carcinogen: 7,12-DIMETHYLBENZ[A]ANTHRACENE, 57-97-6, Dose [Inhibitor]: 0, 5 UMOL IN 0.2 ML ACETONE/DMSO (9:1) 2/WK FOR 20 WK APPLIED 30 MIN PRIOR TO EACH PROMOTER DOSE (STUDY DURATION: 30 WK), Route [Inhibitor]: DERMAL, Species: MOUSE, Strain/Sex: SENCAR/FEMALE, Target Tissue: Type of Lesion: SKIN: PAPILLOMA, Dose [Carcinogen]: 10 NMOL IN 0.2 ML ACETONE ONCE, Promoter: 12-O-TETRADECANOYLPHORBOL-13-ACETATE, 16561-29-8","92%, 87%, 5%, not significant"
same,"tumour outcome (control, treated, inhibition, significance)","Carcinogen: UV-B IRRADIATION, Dose [Inhibitor]: 0, 5 UMOL IN 0.2 ML DMSO:ACETONE (1:9) 2.5-3 HR PRIOR TO EACH UV-B EXPOSURE (STUDY DURATION: 55 WK), Route [Inhibitor]: DERMAL, Species: MOUSE, Strain/Sex: SKH-1/FEMALE, Target Tissue: Type of Lesion: SKIN: SQUAMOUS CELL CARCINOMA, Dose [Carcinogen]: 745 MJ/CM2 5 D/WK FOR 11 WK, Promoter: NONE USED","81%, 67%, 17%, not significant"
same,"tumour outcome (control, treated, inhibition, significance)","Carcinogen: UV-B IRRADIATION, Dose [Inhibitor]: 0, 10 UMOL IN 0.2 ML DMSO:ACETONE (1:9) 2.5-3 HR PRIOR TO EACH UV-B EXPOSURE (STUDY DURATION: 55 WK), Route [Inhibitor]: DERMAL, Species: MOUSE, Strain/Sex: SKH-1/FEMALE, Target Tissue: Type of Lesion: SKIN: SQUAMOUS CELL CARCINOMA, Dose [Carcinogen]: 745 MJ/CM2 5 D/WK FOR 11 WK, Promoter: NONE USED","81%, 39%, 52%, not calculated"
CSCC[C@H](N)C(=O)O,"tumour outcome (control, treated, inhibition, significance)","Carcinogen: 7,12-DIMETHYLBENZ[A]ANTHRACENE, 57-97-6, Dose [Inhibitor]: 0.06 MMOL/G DIET DAILY FOR 17 WK STARTING 1 WK PRIOR TO CARCINOGEN TREATMENT AND CONTINUING THROUGH THE END OF THE STUDY, Route [Inhibitor]: ORAL, Species: RAT, Strain/Sex: SPRAGUE-DAWLEY/FEMALE, Target Tissue: Type of Lesion: MAMMARY GLAND: TUMOR, Dose [Carcinogen]: 12 MG IN 1 ML OLIVE OIL ONCE, Promoter: NONE USED","59%, 72%, -22%, not calculated"
same,"tumour outcome (control, treated, inhibition, significance)","Carcinogen: N-METHYL-N'-NITRO-N-NITROSOGUANADINE, 70-25-7, Dose [Inhibitor]: 0, 150 MG/KG BW 1/2 D FOR 26 WK BEGINNING POST CARCINOGEN TREATMENT (STUDY DURATION: 52 WK), Route [Inhibitor]: SUBCUTANEOUS, Species: RAT, Strain/Sex: WISTAR/MALE, Target Tissue: Type of Lesion: STOMACH: ADENOCARCINOMA, Dose [Carcinogen]: 25 UG/ML IN DRINKING WATER FOR 25 WK, Promoter: AMMONIUM ACETATE, 631-61-8, SODIUM HYPOCHLORITE, 7681-52-9, Promoter: AMMONIUM ACETATE, 631-61-8, SODIUM HYPOCHLORITE, 7681-52-9","19/19 (100%), 9/18 (50%), 50%, p<0.01"
same,"tumour outcome (control, treated, inhibition, significance)","Carcinogen: N-NITROSOBIS(2-OXOPROPYL)AMINE [60559-38-4], Dose [Inhibitor]: 2% IN DIET FOR 27 WK BEGINNING IMMEDIATELY POST LAST CARCINOGEN DOSE (STUDY DURATION: 32 WK), Route [Inhibitor]: ORAL, Species: HAMSTER, Strain/Sex: SYRIAN/FEMALE, Target Tissue: Type of Lesion: PANCREAS: ADENOCARCINOMA, Dose [Carcinogen]: 10 MG/KG BW 1X/WK FOR 5 WK (STUDY DURATION: 32 WK), Promoter: NONE","20/28 (71.4%), 7/19 (36.8%), 48%, p<0.05"
C=CC[C@@H]1/C=C(\C)C[C@H](C)C[C@H](OC)[C@H]2O[C@@](O)(C(=O)C(=O)N3CCCC[C@H]3C(=O)O[C@H](/C(C)=C/[C@@H]3CC[C@@H](O)[C@H](OC)C3)[C@H](C)[C@@H](O)CC1=O)[C@H](C)C[C@@H]2OC,"tumour outcome (control, treated, inhibition, significance)","Carcinogen: 7,12-DIMETHYLBENZ[A]ANTHRACENE : 57-97-6, Dose [Inhibitor]: 0, 1 UMOL APPLIED 5 MIN PRIOR TO EACH PROMOTER DOSE FOR 22 WK BEGINNING 10 D POST CARCINOGEN DOSE (STUDY DURATION: 23 WK, Route [Inhibitor]: DERMAL, Species: MOUSE, Strain/Sex: CD-1/FEMALE, Target Tissue: Type of Lesion: SKIN: PAPILLOMA, Dose [Carcinogen]: 200 NMOL ONCE, Promoter: 12-O-TETRADECANOYLPHORBOL-13-ACETATE, 16561-29-8","100%, 15%, 85%, not calculated"
same,"tumour outcome (control, treated, inhibition, significance)","Carcinogen: 7,12-DIMETHYLBENZ[A]ANTHRACENE, 57-97-6, Dose [Inhibitor]: 0, 0.1 UMOL APPLIED 15 MIN PRIOR TO EACH PROMOTER DOSE FOR 22 WK BEGINNING 10 D POST CARCINOGEN DOSE (STUDY DURATION: 23, Route [Inhibitor]: DERMAL, Species: (20,20)/(20,20), Strain/Sex: CD-1/FEMALE, Target Tissue: Type of Lesion: SKIN: PAPILLOMA, Dose [Carcinogen]: 200 NMOL ONCE, Promoter: 12-O-TETRADECANOYLPHORBOL-13-ACETATE, 16561-29-8","100%, 38%, 62%, not calculated"
